US8022249B2, “Compounds for the treatment of metabolic disorders” (Wellstat Therapeutics Corporation, priority 2005, dated 2011)

Tests used:
[1] = tested on: ob/ob mice; experiment: Serum ALT and AST in ob/ob mice (animal model for NASH); format: in vivo; settings: for ALT ± SD / AST ± SD: male ob/ob mice, 100 mg/kg daily oral doses for two weeks, serum
Protocol: (§1) Male ob/ob mice were divided into four treatment groups comprising six mice each, and given daily oral doses of Vehicle (1% hydroxypropylmethylcellulose) or 100 mg/kg Compound CT, Compound CV, or Compound BI (a positive control) for two weeks. Blood samples were collected form the retro-orbital sinus and processed for serum chemistry measurements.
Obese ob/ob mice develop chronic inflammatory fatty liver disease and are considered to be an animal model for nonalcoholic steatohepatitis (NASH), a condition which can lead toward progressive cirrhosis and liver dysfunction. In NASH, fat accumulation increases the susceptibility of the liver to inflammatory injury. One characteristic sign of NASH in patients is, in the absence of viral infection or alcoholism, elevated levels in serum of enzymes that are released from damaged hepatocytes, e.g. alanine aminotransferase (ALT) and Aspartate-aminotransferase (AST). These enzymes are elevated in ob/ob mice as a consequence of fatty liver and secondary inflammation. In Table 3, ALT and AST in serum samples from mice treated with Compound CT, Compound CV, and Compound BI are shown, as are enzyme levels in serum from control ob/ob mice treated only with vehicle. Treatment with Compound CT, Compound CV, and Compound BI reduced serum ALT and AST versus vehicle-treated ob/ob mice.

[2] = tested on: ob/ob mice; experiment: Serum glucose, triglycerides, free fatty acids and insulin in ob/ob mice; format: in vivo; settings: male ob/ob mice, 100 mg/kg daily oral doses for two weeks
Protocol: Ob/ob mice have a defect in the gene for leptin, a protein involved in appetite regulation and energy metabolism, and are hyperphagic, obese, and insulin resistant. They develop hyperglycemia and fatty liver.
as §1

Compound | ALT ± SD [1] [U/L] | AST ± SD [1] [U/L] | serum ALT and AST versus vehicle-treated ob/ob mice (in words) [1] | Free Fatty Acids ± SD [2] [µM] | Glucose ± SD [2] [mg/dL] | Insulin ± SD [2] [ng/mL] | Triglycerides ± SD [2] [mg/dL]
Cc1cccc(C)c1COc1cccc(C(=O)CCC(=O)O)c1 [Compound BI, 4-(3-(2,6-Dimethylbenzyloxy)phenyl)-4-oxobutyric acid, reference compound] | 330 ± 40 | 217 ± 24 | reduced | 874 ± 74 | 180 ± 19 | 1.1 ± 0.2 | 58 ± 2
Cc1cccc(C)c1COc1cccc(CC(=O)NO)c1 [Compound CT, N-Hydroxy-2-[3-(2,6-dimethylbenzyloxy)phenyl]acetamide] | 230 ± 59 | 170 ± 23 | reduced | 894 ± 55 | 131 ± 21 | 3.1 ± 0.9 | 68 ± 6
Cc1cccc(C)c1COc1cccc(CC(=O)NCCO)c1 [Compound CV, N-(2-Hydroxyethyl)-2-[3-(2,6-dimethylbenzyloxy)phenyl]acetamide] | 484 ± 65 | 318 ± 48 | reduced | 1070 ± 60 | 164 ± 10 | 5.0 ± 0.7 | 73 ± 5
